By IC50 is commonly meant the concentration needed to halve the response being measured.

Some results are limits rather than exact numbers.

The first test deals with BTK, recombinant human catalytic domain (aa 393-659) (Homo sapiens (Human), UniProt Q06187). Kind of test: In vitro BTK kinase activity measured by time-resolved fluorescence resonance energy transfer (trFRET). The test is classed as biochemical. The conditions noted are these: read-out: Btk IC50.
Sequence of BTK, recombinant human catalytic domain (aa 393-659) (Q06187 393-659): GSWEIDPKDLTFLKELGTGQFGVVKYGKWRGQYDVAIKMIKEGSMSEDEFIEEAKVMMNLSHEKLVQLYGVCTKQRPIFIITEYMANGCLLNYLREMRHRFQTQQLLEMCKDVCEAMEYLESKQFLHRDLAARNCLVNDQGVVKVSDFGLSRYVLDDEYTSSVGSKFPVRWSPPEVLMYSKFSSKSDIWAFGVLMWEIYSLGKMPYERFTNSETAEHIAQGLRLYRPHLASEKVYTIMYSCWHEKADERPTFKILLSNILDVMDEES
Turning to `C=CC(=O)Nc1cccc(-c2ccc(C(N)=O)c3[nH]ccc23)c1OC` [E.1.30], the IC50 was in the range of 100 to 1000 nM.
Take `C=CC(=O)N1CCC[C@H](c2ncc(C(N)=O)c3[nH]ccc23)C1` [E.9.33]: the concentration for half-maximal inhibition (IC50) is 100 to 1000 nM.
Still for that read-out and setting: the result for `Cc1c(NC(=O)c2cccnc2)cccc1-c1ccc(C(N)=O)c2[nH]c(C3=CCN(S(C)(=O)=O)CC3)cc12` [D.7.39] reads under 100 nM.
As to `C=CC(=O)N1CC(N(C)c2ccc(C(N)=O)c3[nH]c(C4(O)COC4)cc23)C1` [E.9.22], the 50% inhibitory concentration (IC50) was 100 to 1000 nM.
Consider `CC(C)(C)c1ccc(C(=O)N[C@@H]2CCCN(c3ccc(C(N)=O)c4[nH]ccc34)C2)cc1` [O.1.11*], for which the IC50 lay in the range of 1000 to 10000 nM.
In the case of `C=CC(=O)N1CCC[C@H](c2ccc(C(N)=O)c3[nH]c(C)cc23)C1` [E.9.8], the half-inhibitory concentration (IC50) is under 100 nM.
As to `Cc1c(NC(=O)CCN2CCCCC2)cccc1-c1ccc(C(N)=O)c2[nH]c(C3=CCN(S(C)(=O)=O)CC3)cc12` [D.7.3], the IC50 is 100 to 1000 nM.
As to `C=CC(=O)Nc1cccc(-c2ccc(C(N)=O)c3[nH]c(C=C)cc23)c1` [E.1.18], the IC50 was under 100 nM.
With `C=CC(=O)N1CC(N(C)c2ccc(C(N)=O)c3[nH]c(-c4ccc(CN5CCOCC5)cn4)cc23)C1` [E.9.13], the half-inhibitory concentration (IC50) is under 100 nM.
With `NC(=O)c1ccc(N2CCC[C@@H](n3cnc4ccc(F)cc4c3=O)C2)c2cc(-c3ccc(F)cc3)[nH]c12` [O.1.15*], the half-inhibitory concentration (IC50) is 1000 to 10000 nM.
On to `C=CC(=O)N1C[C@@H]2CN(c3ccc(C(N)=O)c4[nH]ccc34)C[C@@H]21` [E.9.43], for which the concentration for half-maximal inhibition (IC50) fell in the range of 100 to 1000 nM.
As for `C=CC(=O)Nc1cc(-c2ccc(C(N)=O)c3[nH]ccc23)ccc1Cl` [E.1.19], the concentration for half-maximal inhibition (IC50) was under 100 nM.
As to `C=CC(=O)N1CC(N(C)c2ccc(C(N)=O)c3[nH]c([C@@H]4CCOC4)cc23)C1` [Example 5.1], the IC50 was under 100 nM.
As for `C=CC(=O)N1CC([C@H](C)c2ncc(C(N)=O)c3[nH]ccc23)C1` [E.9.29], the IC50 was in the range of 100 to 1000 nM.
Turning to `NC(=O)c1ccc(N2CCC[C@@H](n3cnc4ccccc4c3=O)C2)c2cc[nH]c12` [O.1.12*], the half-inhibitory concentration (IC50) is 1000 to 10000 nM.
As for `NC(=O)c1ccc(N2CCC[C@@H](n3cnc4ccccc4c3=O)C2)c2cc(-c3cccnc3)[nH]c12` [O.1.27*], the IC50 lay in the range of 100 to 1000 nM.
`CCC(Cl)C(=O)Nc1cccc(-c2ccc(C(N)=O)c3[nH]c(C4=CCN(S(C)(=O)=O)CC4)cc23)c1C` (centres unmarked) [D.7.26]: the half-maximal inhibitory concentration (IC50) is under 100 nM.
In the case of `Cc1c(NC(=O)/C=C/C(N)=O)cccc1-c1ccc(C(N)=O)c2[nH]c(C3=CCN(S(C)(=O)=O)CC3)cc12` [D.7.25], the IC50 was under 100 nM.
The same measure, in the same setting: then `Cc1c(NC(=O)CC#N)cccc1-c1ccc(C(N)=O)c2[nH]c(C3=CCN(S(C)(=O)=O)CC3)cc12` [D.7.4], with under 100 nM; and `CC(=O)NCc1ccccc1-c1cc2c(-c3cccc(NC(=O)c4nccs4)c3C)ccc(C(N)=O)c2[nH]1` [E.4.3], with 100 to 1000 nM.
Consider `Cc1c(NC(=O)c2ccc(C(F)F)cc2)cccc1-c1ccc(C(N)=O)c2[nH]ccc12` [O.1.1], for which the IC50 lay within 100 to 1000 nM.
Consider `C=CC(=O)N1C[C@@H](CO)C[C@@H](c2ccc(C(N)=O)c3[nH]ccc23)C1` [E.9.45], for which the IC50 is 1000 to 10000 nM.
Consider `CC/C=C(\C)C(=O)Nc1cccc(-c2ccc(C(N)=O)c3[nH]c(C4=CCN(S(C)(=O)=O)CC4)cc23)c1C` [D.7.16], for which the IC50 was under 100 nM.
For `C=CC(=O)Nc1cccc(-c2ncc(C(N)=O)c3[nH]ccc23)c1` [E.1.10], the IC50 was under 100 nM.
Consider `CS(=O)(=O)N1CC=C(c2cc3c(N4CCC[C@@H](N5CCn6ccnc6C5=O)C4)ccc(C(N)=O)c3[nH]2)CC1` [O.1.3*], for which the IC50 is under 100 nM.
As for `C=CC(=O)N[C@@H]1CCCN(c2ccc(C(N)=O)c3[nH]c(C4=CCN(S(C)(=O)=O)CC4)cc23)C1` [E.1.11*], the IC50 is under 100 nM.
Same read-out and setting: the result for `COc1ccc(C(=O)N[C@@H]2CCCN(c3ccc(C(N)=O)c4[nH]ccc34)C2)cc1` [O.1.9*] reads 1000 to 10000 nM.

The test is the same for the next values; noted with them: trFRET, 0.001 mM ATP, biotin-TYR1 peptide substrate; read-out: Btk IC50.
As to `C=C(CN(C)C)C(=O)Nc1cccc(-c2ccc(C(N)=O)c3[nH]ccc23)c1` [D.6.1], the IC50 is under 100 nM.
Same read-out and setting: then `C=CC(=O)Nc1cccc(-c2ccc(C(N)=O)c3[nH]c(-c4ccc5c(c4)CCO5)cc23)c1C` [A.1.21], with under 100 nM; and `Cc1c(-c2ccc(C(N)=O)c3[nH]c(-c4ccc(F)cc4)cc23)cccc1-n1cnc2ccccc2c1=O` [A.12.1], with under 100 nM.
On to `Cc1c(NC(=O)c2cc3c(s2)CCCC3)cccc1-c1ccc(C(N)=O)c2[nH]c(-c3ccc(F)cc3)cc12` [A.9.7], for which the IC50 is 1000 to 10000 nM.
With `NC(=O)c1ccc(-c2ccncc2)c2cc(-c3ccc(F)cc3)[nH]c12` [A.9.4], the IC50 was in the range of 100 to 1000 nM.
On the same count and under the same terms, then `Cc1c(-c2ccc(C(N)=O)c3[nH]c(-c4cnn(C)c4)nc23)cccc1-n1cnc2ccccc2c1=O` [Example 14, 2-(1-Methyl-1H-pyrazol-4-yl)-4-(2-methyl-3-(4-oxoquinazolin-3(4H)-yl)phenyl)-1H-benzo[d]imidazole-7-carboxamide], with 100 to 1000 nM; and `Cc1c(N)cccc1-c1ccc(C(N)=O)c2[nH]c(C3=CCC(F)(F)CC3)cc12` [Example 21, 4-(3-Amino-2-methylphenyl)-2-(4,4-difluorocyclohex-1-enyl)-1H-indole-7-carboxamide], with under 100 nM.
The same measure, in the same setting: the result for `Cc1c(-c2ccc(C(N)=O)c3[nH]c(C4=CCN(S(C)(=O)=O)CC4)cc23)cccc1-n1cnc2ccc(F)cc2c1=O` [A.4.19] reads under 100 nM.
As to `C=CC(=O)Nc1cccc(-c2ccc(C(N)=O)c3[nH]ncc23)c1` [Example 18, 4-(3-Acrylamidophenyl)-1H-indazole-7-carboxamide], the half-inhibitory concentration (IC50) is under 100 nM.
On to `Cc1c(-c2ccc(C(N)=O)c3[nH]c(-c4cncnc4)cc23)cccc1-n1cnc2ccccc2c1=O` [A.13.1], for which the IC50 was 100 to 1000 nM.
For `NC(=O)c1ccc(-c2cccnc2)c2cc(-c3ccc(F)cc3)[nH]c12` [A.9.2], the half-maximal inhibitory concentration (IC50) is under 100 nM.
`C/C=C/C(=O)NCc1ccccc1-c1cc2c(-c3cccc(NC(=O)c4nccs4)c3C)ccc(C(N)=O)c2[nH]1` [D.1.9]: the IC50 was in the range of 1000 to 10000 nM.
Turning to `CS(=O)(=O)N1CC=C(c2cc3c(N4CC[C@@H](O)[C@H](NC(=O)c5nccs5)C4)ccc(C(N)=O)c3[nH]2)CC1` (relative stereo) [O.1, N-(trans-1-(7-carbamoyl-2-(1-(methylsulfonyl)-1,2,3,6-tetrahydropyridin-4-yl)-1H-indol-4-yl)-4-hydroxypiperidin-3-yl)thiazole-2-carboxamide], the 50% inhibitory concentration (IC50) was under 100 nM.
Take `NC(=O)c1ccc(-c2cncnc2)c2cc(-c3ccc(F)cc3)[nH]c12` [A.9.1]: the 50% inhibitory concentration (IC50) lay within 100 to 1000 nM.
`C=CC(=O)Nc1cccc(-c2ccc(C(N)=O)c3[nH]c(-c4cn(C)nc4C)cc23)c1C` [A.1.5]: the concentration for half-maximal inhibition (IC50) is under 100 nM.
With `Cc1ccc(-c2cc3c(-c4ccn[nH]4)ccc(C(N)=O)c3[nH]2)cc1` [A.8.8], the half-inhibitory concentration (IC50) is 100 to 1000 nM.
Regarding `CC(=O)N1CC=C(c2cc3c(-c4cccc(NC(=O)c5ccc(C(C)(C)C#N)cc5)c4C)ccc(C(N)=O)c3[nH]2)CC1` [A.3.8], the IC50 was under 100 nM.
`Cc1ccc(-c2cc3c(-c4ccsc4)ccc(C(N)=O)c3[nH]2)cc1` [A.8.6]: the half-inhibitory concentration (IC50) lay in the range of 100 to 1000 nM.
For `C=CC(=O)N1CC(N(C)c2cnc(C(N)=O)c3[nH]ccc23)C1` [Example 29, 4-((1-Acryloylazetidin-3-yl)(methyl)amino)-1H-pyrrolo[2,3-c]pyridine-7-carboxamide], the concentration for half-maximal inhibition (IC50) was under 100 nM.
On the same count and under the same terms, the result for `C=CC(=O)Nc1cccc(-c2cnc(C(N)=O)c3[nH]ccc23)c1C` [Example 17, 4-(3-Acrylamido-2-methylphenyl)-1H-pyrrolo[2,3-c]pyridine-7-carboxamide] reads under 100 nM.
As to `Cc1c(-c2ccc(C(N)=O)c3[nH]c(C4=CCN(S(C)(=O)=O)CC4)cc23)cccc1N(CCO)C(=O)c1ccc(C(F)F)cc1` [A.4.14], the IC50 was under 100 nM.
As for `C=CC(=O)Nc1cccc(-c2ccc(C(N)=O)c3[nH]c(-c4cccnc4F)cc23)c1C` [A.1.17], the half-inhibitory concentration (IC50) was under 100 nM.
`C=CC(=O)NCc1cccc(-c2ccc(C(N)=O)c3[nH]c(C4=CCN(S(C)(=O)=O)CC4)cc23)c1` [A.4.1]: the IC50 was under 100 nM.
Turning to `Cc1c(-c2ccc(C(N)=O)c3[nH]c(C4=CCNC4)cc23)cccc1-n1cnc2ccccc2c1=O` [G.1, 2-(2,5-Dihydro-1H-pyrrol-3-yl)-4-(2-methyl-3-(4-oxoquinazolin-3(4H)-yl)phenyl)-1H-indole-7-carboxamide], the IC50 was under 100 nM.
For the compound `CC(=O)N1CC=C(c2cc3c(-c4cccc(NC(=O)c5nccs5)c4C)ccc(C(N)=O)c3[nH]2)CC1` [A.3.4], the half-inhibitory concentration (IC50) is under 100 nM.
`C=CC(=O)Nc1cccc(-c2ccc(C(N)=O)c3[nH]c(-c4ccc(C#N)cc4)cc23)c1C` [A.1.42]: the IC50 was under 100 nM.
Same read-out and setting: the result for `C=CC(=O)Nc1cccc(-c2ccc(C(N)=O)c3[nH]c(C4=CCN(S(C)(=O)=O)CC4)cc23)c1` [A.4.15] reads under 100 nM.
In the case of `CC(=O)N1CCC(c2cc3c(-c4cccc(NC(=O)c5ccc(C6CC6)cc5)c4C)ccc(C(N)=O)c3[nH]2)CC1` [D.5.1], the IC50 fell in the range of 100 to 1000 nM.
Consider `C=C(CN1CCOCC1)C(=O)Nc1cccc(-c2ccc(C(N)=O)c3[nH]ccc23)c1` [D.6.2], for which the IC50 was under 100 nM.
Same read-out and setting: then `CC#CC(=O)Nc1c[nH]c2c(C(N)=O)ccc(-c3cccc(NC(=O)c4nccs4)c3C)c12` [D.3.5], with 1000 to 10000 nM.
For the compound `Cc1c(NCCO)cccc1-c1ccc(C(N)=O)c2[nH]c(C3=CCN(S(C)(=O)=O)CC3)cc12` [A.4.13], the IC50 was under 100 nM.
On the same count and under the same terms, then `Cc1c(NC(=O)c2nccs2)cccc1-c1ccc(C(N)=O)c2[nH]c(C3=CCN(S(C)(=O)=O)CC3)cc12` [A.4.17], with under 100 nM; and `CC(=O)N1CCC(c2cc3c(-c4cccc(N)c4C)ccc(C(N)=O)c3[nH]2)CC1` [L.1, 2-(1-Acetylpiperidin-4-yl)-4-(3-amino-2-methylphenyl)-1H-indole-7-carboxamide], with 100 to 1000 nM.
As to `NC(=O)c1ccc(I)c2cc(-c3cccnc3)[nH]c12` [F.1, 4-iodo-2-(pyridin-3-yl)-1H-indole-7-carboxamide], the half-inhibitory concentration (IC50) is 100 to 1000 nM.
`C=CC(=O)N1CCC[C@@H](c2ccc(C(N)=O)c3[nH]ccc23)C1` [30 (S), (S)-4-(1-acryloylpiperidin-3-yl)-1H-indole-7-carboxamide]: the 50% inhibitory concentration (IC50) was under 100 nM.

(Values after patent publication US9567339B2, “Primary carboxamides as BTK inhibitors” (AbbVie Inc., priority 2013, dated 2017).)
